Reference: patent publication US20260124213A1, “STAPHYLOCOCCUS AUREUS PBP4 INHIBITORS AND METHOD OF USE” (UNIVERSITY OF ROCHESTER, priority 2022, published 2026)
≈ marks a conversion by molar mass, not a printed value. Where “and” joins values, the source holds several entries; their conditions need not be identical. Equal values may be shown once. Read-outs that look alike come from different tables or passages of the source.

Experiments:
MRSA strain AH-1263 = assay: Broth microdilution antibiotic potentiation; format: cell-based, Staphylococcus aureus; conditions: AH-1263; for MIC: Staphylococcus aureus, MRSA
Procedure: (§1) Broth Microdilution Method for Antibiotic Potentiation with MRSA Strains. Bacteria were cultured for 6 hours in CAMHB and sub-cultured to 5×10^5 CFU/mL in CAMHB. Subcultures were aliquoted (4 mL) into culture tubes and then inoculated with compound from 10 mM or 100 mM stock in DMSO to the desired concentration. […]. Bacteria treated with antibiotic alone served as the control. Samples from the secondary culture tubes were then aliquoted (200 μL) into the first row of wells of a 96-well microtiter plate. Rows 2-11 were filled (100 μL) with the remaining 4 mL of bacterial subculture containing the adjuvant. Row 12 was filled (100 μL) with uninoculated media. From row 1, 100 μL was transferred to row two and mixed 5-8 times before being transferred to row 3. This procedure was used to serial dilute the rest of the rows through 10. The microtiter plate was then covered in Press 'n Seal and incubated at 37° C.

[1] = system: MRSA strain ATCC BAA-1556; assay: Broth microdilution antibiotic potentiation; format: cell-based, Staphylococcus aureus; conditions: ATCC BAA-1556; for MIC: Staphylococcus aureus
Procedure: as §1

MRSA strain AH-2204 = assay: Broth microdilution antibiotic potentiation; format: cell-based, Staphylococcus aureus; conditions: Staphylococcus aureus, MRSA, AH-2204
Procedure: as §1

S. aureus strain USA300 = assay: microbe, parasite or virus in culture; format: cell-based, Staphylococcus aureus
Procedure: (§2) Bacterial Strains and Chemicals. The bacterial strains used in these studies include: USA300, USA300Δpbp4, USA300Δpbp4 pPBP4, COL, COLn, COLnex, CRB, and CRBΔpbp4. S. aureus strain USA300 is a predominant cause of U.S. community-associated MRSA infections, whereas strain COL is a commonly studied hospital-associated MRSA strain. The S. aureus USA300 pbp4-null strain (USA300Δpbp4) and PBP4 complementation strain (USA300Δpbp4 pPBP4) have been previously described. […] All strains were grown in Mueller Hinton (MH) broth at 37° C., as indicated.
(§3) Prior to identifying new PBP4 inhibitors, a screening paradigm to identify existing molecules that reverse the antibiotic resistance profile of wild type cells to that of a pbp4 mutant was developed. To define screening conditions three strains were employed: 1) a wild type USA300 MRSA strain, 2) an isogenic pbp4 deletion strain, and 3) a complemented strain harboring a plasmid wildtype pbp4 copy. The antibiotic susceptibility profile of each strain was measured to determine the magnitude with which PBP4 affects resistance to various antibiotics (Table 1).

USA300Δpbp4 pPBP4 = assay: microbe, parasite or virus in culture; format: cell-based; conditions: Staphylococcus aureus, read-out: Minimum inhibitory concentration
CRB = assay: MIC testing of antibiotics; format: cell-based, Staphylococcus aureus; conditions: for MIC: Staphylococcus aureus, read-out: Minimum inhibitory concentration, CRB
Procedure: as §2
(§4) Prioritized compounds were tested for their ability to reverse PBP4 mediated antibiotic resistance in another S. aureus background using three isogenic strains that became available during the study (generous gift from Dr. S. Chatterjee; University of Maryland). These strains included: 1) COLnex, which is a methicillin susceptible strain, 2) CRB, a methicillin/ceftobiprole resistant strain of COLnex that overproduces PBP4, and 3) CRBΔpbp4, a methicillin susceptible strain of CRB lacking the pbp4 gene.

USA300Δpbp4 = assay: MIC testing of antibiotics; format: cell-based, Staphylococcus aureus; conditions: for MIC: Staphylococcus aureus, read-out: Minimum inhibitory concentration
Procedure: as §2, §3

strain CRBΔpbp4 = assay: microbe, parasite or virus in culture; format: cell-based, Staphylococcus aureus; conditions: Staphylococcus aureus, read-out: BPR (ceftobiprole) MIC, Alone
COLnex = assay: MIC testing of antibiotics; format: cell-based; conditions: Staphylococcus aureus, read-out: Minimum inhibitory concentration
Procedure: as §2, §4

CRBΔpbp4 = assay: MIC testing of antibiotics; format: cell-based; conditions: Staphylococcus aureus, read-out: Minimum inhibitory concentration
Procedure: as §2, §4

S. aureus strain CRB = assay: microbe, parasite or virus in culture; format: cell-based, Staphylococcus aureus; conditions: Staphylococcus aureus, read-out: BPR (ceftobiprole) MIC, Alone
Procedure: Fractional Inhibitory Concentration Index (FICI). Fractional inhibitory testing was performed in checkerboard format to determine whether putative PBP4 inhibitors potentiated the antimicrobial effects of β-lactams toward S. aureus strains USA300 and CRB, as previously described (Chojacnki, et al. Journal of Antimicrobial Chemotherapy, 2003, 52, 1). To do so, in triplicate 10^5 CFU of each strain (10 μL) was added to individual wells of a microtiter plate containing 90 μL MH media. […] Plates were incubated at 37° C. for 16-20 hour and the lowest concentration of each test agent that inhibited bacterial growth alone or in combination was determined by the naked eye. The fractional inhibitory concentration (FIC) index was calculated using the formula: FIC of A (MIC of drug A in combination/MIC of drug A alone)+FIC B ([…]/MIC of drug B alone). A synergistic interaction was defined as a FICI value of less than 0.5, an additive interaction was defined as a FICI value between 0.5 and 1.0, an indifferent interaction was defined as a FICI value between 1.0 and 4.0, and an antagonistic interaction was defined as a FICI value of more than 4.0.

[2] = read-out: Amoxicillin MIC, no compound (—)
[3] = Staphylococcus aureus, USA300, read-out: Minimum inhibitory concentration
[4] = read-out: Cefotaxime MIC, no compound (—)
[5] = read-out: Cephalothin MIC, no compound (—)
[6] = read-out: Imipenem MIC, no compound (—)
[7] = read-out: Piperacillin MIC, no compound (—)

| Compound | MIC (S. aureus strain USA300; [3]) [µg/mL] | MIC (USA300Δpbp4 pPBP4) [µg/mL] | MIC (CRB) [µg/mL] | MIC (USA300Δpbp4) [µg/mL] | MIC (COLnex) [µg/mL] | MIC (CRBΔpbp4) [µg/mL] | also measured |
| --- | --- | --- | --- | --- | --- | --- | --- |
| CC1(C)S[C@@H]2[C@H](NC(=O)[C@H](N)c3ccc(O)cc3)C(=O)N2[C@H]1C(=O)O [Amoxicillin, amoxicillin] | – | – | – | – | – | – | Amoxicillin MIC, no compound (—) (MRSA strain AH-1263): 8 µg/mL; MIC (MRSA strain AH-1263; [2]): 4 µg/mL; MIC [1, 2]: 8 µg/mL; MIC (MRSA strain AH-2204; [2]): 2 µg/mL |
| Nc1nc(/C(=N/O)C(=O)N[C@@H]2C(=O)N3C(C(=O)O)=C(/C=C4\CCN([C@@H]5CCNC5)C4=O)CS[C@H]23)ns1 [BPR, ceftobiprole] | 0.5 (≈ 0.935 µM) | 0.5 (≈ 0.935 µM) | 128 (≈ 239 µM) | 0.25 (≈ 0.468 µM) | 0.25 (≈ 0.468 µM) | 0.25 (≈ 0.468 µM) | Minimum inhibitory concentration (CRB; CRB): >128 µg/mL; MIC (strain CRBΔpbp4): 0.25 µg/mL (≈ 0.468 µM); MIC (S. aureus strain CRB): 128 µg/mL |
| O=C(O)c1cn(C2CC2)c2cc(N3CCNCC3)c(F)cc2c1=O [CIP, ciprofloxacin] | – | – | 0.5 (≈ 1.51 µM) | 1 (≈ 3.02 µM) | 0.25 (≈ 0.754 µM) | 0.25 (≈ 0.754 µM) | MIC (S. aureus strain USA300; Staphylococcus aureus, USA300; read-out: Minimum inhibitory concentration): 4 µg/mL (≈ 12.1 µM); Minimum inhibitory concentration (S. aureus strain USA300; USA300): 4 µg/mL (≈ 12.1 µM); Minimum inhibitory concentration (USA300Δpbp4; USA300Δpbp4): 1 µg/mL (≈ 3.02 µM) |
| CO/N=C(\C(=O)N[C@@H]1C(=O)N2C(C(=O)O)=C(COC(C)=O)CS[C@H]12)c1csc(N)n1 [Cefotaxime, cefotaxime] | – | – | – | – | – | – | Cefotaxime MIC, no compound (—) (MRSA strain AH-1263): 32 µg/mL; MIC (MRSA strain AH-1263; [4]): 16 µg/mL; Cefotaxime MIC, no compound (—) [1]: 32 µg/mL; MIC [1, 4]: 16 µg/mL |
| CC(=O)OCC1=C(C(=O)O)N2C(=O)[C@@H](NC(=O)Cc3cccs3)[C@H]2SC1 [Cephalothin, cephalothin] | – | – | – | – | – | – | Cephalothin MIC, no compound (—) (MRSA strain AH-1263): 32 µg/mL; MIC (MRSA strain AH-1263; [5]): 16 µg/mL; Cephalothin MIC, no compound (—) [1]: 16 µg/mL; MIC [1, 5]: 32 µg/mL |
| C[C@@H](O)[C@H]1C(=O)N2C(C(=O)O)=C(SCCN=CN)C[C@H]12 [Imipenem, imipenem] | – | – | – | – | – | – | MIC (MRSA strain AH-1263; [6]): 16 µg/mL; MIC [1, 6]: 32 µg/mL; MIC (MRSA strain AH-2204; [6]): 32 µg/mL |
| C[C@H]1COc2c(N3CCN(C)CC3)c(F)cc3c(=O)c(C(=O)O)cn1c23 [LEV, levofloxacin] | 1 (≈ 2.77 µM) | 1 (≈ 2.77 µM) | 0.5 (≈ 1.38 µM) | 0.5 (≈ 1.38 µM) | 0.25 (≈ 0.692 µM) | 0.25 (≈ 0.692 µM) | – |
| C[C@@H](O)[C@H]1C(=O)N2C(C(=O)O)=C(S[C@@H]3CN[C@H](C(=O)N(C)C)C3)[C@H](C)[C@H]12 [MER, meropenem] | 4 (≈ 10.4 µM) | 4 (≈ 10.4 µM) | 64 (≈ 167 µM) | 2 (≈ 5.22 µM) | 1 (≈ 2.61 µM) | 1 (≈ 2.61 µM) | Minimum inhibitory concentration (S. aureus strain USA300; USA300): 4 µg/mL (≈ 10.4 µM) |
| CN(C)c1ccc(O)c2c1C[C@H]1C[C@H]3[C@H](N(C)C)C(O)=C(C(N)=O)C(=O)[C@@]3(O)C(O)=C1C2=O [MIN, minocycline] | 0.5 (≈ 1.09 µM) | 0.5 (≈ 1.09 µM) | 0.5 (≈ 1.09 µM) | 0.5 (≈ 1.09 µM) | 0.5 (≈ 1.09 µM) | 0.5 (≈ 1.09 µM) | – |
| C/C(=C\C(=O)OCCCCCCCCC(=O)O)C[C@@H]1OC[C@H](C[C@@H]2O[C@H]2[C@@H](C)[C@H](C)O)[C@@H](O)[C@H]1O [MUP, mupirocin] | 0.125 (≈ 0.25 µM) | 0.125 (≈ 0.25 µM) | 0.03 (≈ 0.0599 µM) | 0.125 (≈ 0.25 µM) | 0.03 (≈ 0.0599 µM) | 0.03 (≈ 0.0599 µM) | – |
| CCOc1ccc2ccccc2c1C(=O)N[C@@H]1C(=O)N2[C@@H]1SC(C)(C)[C@@H]2C(=O)O [NAF, nafcillin] | 8 (≈ 19.3 µM) | 8 (≈ 19.3 µM) | > 128 | 4 (≈ 9.65 µM) | 0.25 (≈ 0.603 µM) | 0.25 (≈ 0.603 µM) | Minimum inhibitory concentration (S. aureus strain USA300; USA300): 8 µg/mL (≈ 19.3 µM) |
| CC1(C)S[C@@H]2[C@H](NC(=O)Cc3ccccc3)C(=O)N2[C@H]1C(=O)O [Penicillin G, penicillin G] | – | – | – | – | – | – | Penicillin G MIC, no compound (—) (MRSA strain AH-1263): 16 µg/mL and 8 µg/mL |
| CCN1CCN(C(=O)N[C@@H](C(=O)N[C@@H]2C(=O)N3[C@@H]2SC(C)(C)[C@@H]3C(=O)O)c2ccccc2)C(=O)C1=O [Piperacillin, piperacillin] | – | – | – | – | – | – | MIC (MRSA strain AH-1263; [7]): 16 µg/mL; MIC [1, 7]: 16 µg/mL; MIC (MRSA strain AH-2204; [7]): 4 µg/mL |
| NC[C@H]1O[C@H](O[C@H]2[C@H](O)[C@@H](O[C@H]3O[C@H](CO)[C@@H](O)[C@H](N)[C@H]3O)[C@H](N)C[C@@H]2N)[C@H](N)C[C@@H]1O [TOB, tobramycin] | 1 (≈ 2.14 µM) | 1 (≈ 2.14 µM) | 0.06 (≈ 0.128 µM) | 1 (≈ 2.14 µM) | 0.06 (≈ 0.128 µM) | 0.06 (≈ 0.128 µM) | – |
| colistin | – | – | – | – | – | – | Minimum inhibitory concentration (S. aureus strain USA300; USA300): 128 µg/mL |
